In patent US20240366612A1, “COMPOUNDS AND METHODS FOR MODULATING NUCLEIC ACID SPLICING” (REMIX THERAPEUTICS INC., priority 2021, published 2024):
Where a name gives a salt, the structure may show the parent alone.

Experiments:
[1] = test system: HTT mRNA; assay: Splicing RT-qPCR assay, HTT canonical (CJ) and alternative (AJ) junction mRNA; type: cell-based; conditions: Homo sapiens, A673 or K562 cells, 24 hours treatment; for IC50: decrease in CJ mRNA; for AC50: increase in AJ mRNA
Method: (§1) Compounds described herein were used to modulate RNA transcript abundance in cells. The expression of a target mRNA was measured by detecting the formation of an exon-exon junction in the canonical transcript (CJ). A compound mediated exon-inclusion event was detected by observing an increase in formation of a new junction with an alternative exon (AJ). Real-time qPCR assays were used to detect these splicing switches and interrogate the potency of various compounds towards different target genes. A high-throughput real time quantitative PCR (RT-qPCR) assay was developed to measure these two isoforms of the mRNA (CJ and AJ) for exemplary genes, such as HTT, SMN2, and MYB, together with a control housekeeping gene, GAPDH or GUSB or PPIA, used for normalization. Briefly, the A673 or K562 cell line was treated with various compounds described herein (e.g., compounds of Formula (I)). After treatment, the levels of the HTT, MYB, or SMN2 mRNA targets were determined from each sample of cell lysate by cDNA synthesis followed by qPCR.
• Cells-to-CT 1-step kit: ThermoFisher A25602, Cells-to-CT lysis reagent: ThermoFisher 4391851C, TaqMan™ Fast Virus 1-Step Master Mix: ThermoFisher 4444436 • GAPDH: VIC-PL, ThermoFisher 4326317E (Assay: Hs99999905_ml)—used for K562/suspension cell lines • GUSB: VIC-PL, ThermoFisher 4326320E (Assay: Hs99999908_ml)—used for K562/suspension cell lines • PPIA: VIC-PL, ThermoFisher 4326316E (Assay: Hs99999904_ml)—used for A673/adherent cell lines
(§2) The A673 cell line was cultured in DMEM with 10% FBS. Cells were diluted with full growth media and plated in a 96-well plate (15,000 cells in 100 ul media per well). The plate was incubated at 37° C. with 5% CO2 for 24 hours to allow cells to adhere. An 11-point 3-fold serial dilution of the compounds was made in DMSO then diluted in media in an intermediate plate. Compounds were transferred from the intermediate plate to the cell plate with the top dose at a final concentration of 10 uM in the well. Final DMSO concentration was kept at or below 0.25%. The cell plate was returned to the incubator at 37° C. with 5% CO2 for an additional 24 hours.
(§3) The K562 cell line was cultured in IMDM with 10% FBS. For K562, cells were diluted with full growth media and plated in either a 96-well plate (50,000 cells in 50 uL media per well) or a 384-well plate (8,000-40,000 cells in 45 uL media per well). An 11-point 3-fold serial dilution of the compounds were made in DMSO then diluted in media in an intermediate plate. Compound was transferred from the intermediate plate to the cell plate with the top dose at a final concentration of 10 uM in the well. Final DMSO concentration was kept at or below 0.25%. Final volume was 100 uL for 96-well plate and 50 uL for 384-well plate. The cell plate was then placed in an incubator at 37° C. with 5% CO2 for 24 hours.
The cells were then gently washed with 50 uL-100 uL cold PBS before proceeding to addition of lysis buffer. 30 uL-50 μL of room temperature lysis buffer with DNAse I (and optionally RNAsin) was added to each well. Cells were shaken/mixed thoroughly at room temperature for 5-10 minutes for lysis to take place and then 3 uL-5 μL of room temperature stop solution was added and wells were shaken/mixed again. After 2-5 minutes, the cell lysate plate was transferred to ice for RT-qPCR reaction setup. The lysates could also be frozen at −80° C. for later use.
In some cases, a direct lysis buffer was used. An appropriate volume of 3×lysis buffer (10 mM Tris, 150 mM NaCl, 1.5%-2.5% Igepal and 0.1-1 U/uL RNAsin, pH 7.4) was directly added to either K562 or A673 cells in media and mixed by pipetting 3 times. The plates were then incubated at room temperature with shaking/rocking for 20-50 minutes to allow for lysis to take place. After this time, the cell lysate plate was transferred to ice to set up for the RT-qPCR reactions. The lysates could also be frozen at −80° C. for later use. […]

[2] = test system: MYB CJ mRNA; assay: Gene panel canonical junction qPCR assay, MYB; type: cell-based; conditions: Homo sapiens, larger gene panel, read-out: MYB IC50 (decrease in CJ mRNA levels)
Method: as §1, §2, §3
The data analysis was performed by first determining the ΔCt vs the housekeeper gene. This ΔCt was then normalized against the DMSO control (ΔΔCt) and converted to RQ (relative quantification) using the 2^(−ΔΔCt) equation. The RQ were then converted to a percentage response by arbitrarily setting an assay window of 3.5 and 4.0 ΔCt for HTT-CJ and MYB-CJ respectively and an assay window of 9 and 3 ΔCt for HTT-AJ and MYB-AJ in 96 well format (50,000 K562 cells/well and 15,000 A673 cells per well) and an assay window of 3 and 4 ΔCt for HTT-CJ and MYB-CJ respectively and an assay window of 5 and 3 ΔCt for HTT-AJ and MYB-AJ respectively in 384 well format (8,000 K562 cells/well example). […] The percentage response was then fitted to the 4 parametric logistic equation to evaluate the concentration dependence of compound treatment. The increase in AJ mRNA is reported as AC50 (compound concentration having […] in AJ increase) while the decrease in CJ mRNA levels is reported as IC50 (compound concentration having 50% response in CJ decrease).
Additional studies were carried out for a larger panel of genes using the protocol provided above. The junction between flanking upstream and downstream exons was used to design canonical junction qPCR assays. At least one of the forward primer, reverse primer or the CY5-labeled 5′ nuclease probe (with 3′ quencher such as ZEN/Iowa Black FQ) was designed to overlap with the exon junction to capture the CJ mRNA transcript. […]

Structure (SMILES) | IC50 [1] [nM] | IC50 [2] [nM] | AC50 [1] [nM]
Cc1cn2cc(-c3cc4ncn([C@H]5CCNC[C@@H]5F)c(=O)c4s3)cc(F)c2n1 (relative stereo) [Compound 272, trans-6-{8-fluoro-2-methylimidazo[1,2-a]pyridin-6-yl}-3-[3-fluoropiperidin-4-yl]thieno[3,2-d]pyrimidin-4-one] | 1000 to 10000 | 1000 to 10000 | > 10000
Cc1cn2cc(-c3cc4ncn([C@H]5CCN[C@H](C)C5)c(=O)c4s3)cc(F)c2n1 (relative stereo) [Compound 277, 6-{8-fluoro-2-methylimidazo[1,2-a]pyridin-6-yl}-3-[(trans)-2-methylpiperidin-4-yl]thieno[3,2-d]pyrimidin-4-one] | 100 to 1000 | 100 to 1000 | 100 to 1000
Cc1cc(-c2cc(=O)n3nc(N4CCN(C)CC4)sc3n2)cc2cn(C)nc12 [Compound 157, 7-(2,7-dimethyl-2H-indazol-5-yl)-2-(4-methylpiperazin-1-yl)-5H-[1,3,4]thiadiazolo[3,2-a]pyrimidin-5-one] | > 10000 | > 10000 | > 10000
Cc1cn2cc(-c3cc(=O)n4nc(N5CCN(C)CC5)sc4n3)cc(F)c2n1 [Compound 159, 7-(8-fluoro-2-methylimidazo[1,2-a]pyridin-6-yl)-2-(4-methylpiperazin-1-yl)-5H-[1,3,4]thiadiazolo[3,2-a]pyrimidin-5-one] | 1000 to 10000 | 1000 to 10000 | 1000 to 10000
Cc1cn2nc(-c3cc(=O)n4cc(N(C)C5CC(C)(C)NC(C)(C)C5)sc4n3)cc(C)c2n1 [Compound 205, 7-(2,8-dimethylimidazo[1,2-b]pyridazin-6-yl)-2-(methyl(2,2,6,6-tetramethylpiperidin-4-yl)amino)-5H-thiazolo[3,2-a]pyrimidin-5-one] | 1000 to 10000 | 1000 to 10000 | 1000 to 10000
Cc1cc(-c2nn3c(=O)cc(N4CCNCC4)nc3s2)cc2cn(C)nc12 [Compound 206, 2-(2,7-dimethyl-2H-indazol-5-yl)-7-(piperazin-1-yl)-5H-[1,3,4]thiadiazolo[3,2-a]pyrimidin-5-one] | 1000 to 10000 | 1000 to 10000 | 1000 to 10000
Cc1cn2cc(-c3cc(=O)n4nc(N5CCNC6(CC6)C5)sc4n3)cc(F)c2n1 [Compound 209, 7-(8-fluoro-2-methylimidazo[1,2-a]pyridin-6-yl)-2-(4,7-diazaspiro[2.5]octan-7-yl)-5H-[1,3,4]thiadiazolo[3,2-a]pyrimidin-5-one] | 1000 to 10000 | 1000 to 10000 | 1000 to 10000
Cc1cc(-c2nn3c(=O)cc(N4CCN(C)CC4)nc3s2)cc2cn(C)nc12 [Compound 210, 2-(2,7-dimethyl-2H-indazol-5-yl)-7-(4-methylpiperazin-1-yl)-5H-[1,3,4]thiadiazolo[3,2-a]pyrimidin-5-one] | 1000 to 10000 | 1000 to 10000 | 1000 to 10000
Cc1cn2nc(-c3cc(=O)n4cc(N5CCNC6(CC6)C5)sc4n3)cc(C)c2n1 [Compound 211, 7-(2,8-dimethylimidazo[1,2-b]pyridazin-6-yl)-2-(4,7-diazaspiro[2.5]octan-7-yl)-5H-thiazolo[3,2-a]pyrimidin-5-one] | 1000 to 10000 | 1000 to 10000 | 1000 to 10000
Cc1cn2nc(-c3cn4c(=O)cc(N5CCNC6(CC6)C5)nc4s3)cc(C)c2n1 [Compound 212, 2-(2,8-dimethylimidazo[1,2-b]pyridazin-6-yl)-7-(4,7-diazaspiro[2.5]octan-7-yl)-5H-thiazolo[3,2-a]pyrimidin-5-one] | 1000 to 10000 | 1000 to 10000 | 1000 to 10000
Cc1cn2cc(-c3cn4c(=O)cc(N5CCNCC5)nc4s3)cc(F)c2n1 [Compound 213, 2-(8-fluoro-2-methylimidazo[1,2-a]pyridin-6-yl)-7-(piperazin-1-yl)-5H-thiazolo[3,2-a]pyrimidin-5-one] | > 10000 | > 10000 | > 10000

Second part, led by results:

IC50 [1] [nM] | IC50 [2] [nM] | Structure (SMILES) | AC50 [1] [nM]
100 to 1000 | 100 to 1000 | Cc1cn2cc(-c3cc4ncn([C@H]5CCNC[C@H]5F)c(=O)c4s3)cc(F)c2n1 (relative stereo) [Compound 273, cis-6-{8-fluoro-2-methylimidazo[1,2-a]pyridin-6-yl}-3-[3-fluoropiperidin-4-yl]thieno[3,2-d]pyrimidin-4-one] | 1000 to 10000
100 to 1000 | 100 to 1000 | Cc1cn2cc(-c3cc4ncn([C@H]5CCN[C@@H](C)C5)c(=O)c4s3)cc(F)c2n1 (relative stereo) [Compound 278, 6-{8-fluoro-2-methylimidazo[1,2-a]pyridin-6-yl}-3-[(cis)-2-methylpiperidin-4-yl]thieno[3,2-d]pyrimidin-4-one hydrochloride] | 100 to 1000
> 10000 | > 10000 | Cc1cc(-c2cc(=O)n3cc(N4CCN(C)CC4)sc3n2)cc2cn(C)nc12 [Compound 109, 7-(2,7-dimethyl-2H-indazol-5-yl)-2-(4-methylpiperazin-1-yl)-5H-thiazolo[3,2-a]pyrimidin-5-one] | > 10000
> 10000 | 1000 to 10000 | Cc1cn2cc(-c3cc(=O)n4cc(N5CCNC6(CC6)C5)sc4n3)cc(F)c2n1 [Compound 207, 7-(8-fluoro-2-methylimidazo[1,2-a]pyridin-6-yl)-2-(4,7-diazaspiro[2.5]octan-7-yl)-5H-thiazolo[3,2-a]pyrimidin-5-one] | > 10000
1000 to 10000 | 1000 to 10000 | Cc1cn2cc(-c3cn4c(=O)cc(N5CCNC6(CC6)C5)nc4s3)cc(F)c2n1 [Compound 208, 2-(8-fluoro-2-methylimidazo[1,2-a]pyridin-6-yl)-7-(4,7-diazaspiro[2.5]octan-7-yl)-5H-thiazolo[3,2-a]pyrimidin-5-one] | 1000 to 10000
1000 to 10000 | 1000 to 10000 | Cc1cn2cc(-c3nn4c(=O)cc(N5CCNCC5)nc4s3)cc(F)c2n1 [Compound 214, 2-(8-fluoro-2-methylimidazo[1,2-a]pyridin-6-yl)-7-(piperazin-1-yl)-5H-[1,3,4]thiadiazolo[3,2-a]pyrimidin-5-one] | > 10000
